Experimental data reported in US9487749B2 (priority 2009, dated 2016).
Where “and” joins values, the source holds several entries; their conditions need not be identical. Equal entries are not always repeated.

Assays:
[1] = tested on: Pseudomonas aeruginosa; assay: USP Antimicrobial Effectiveness Test (AET) of MSM supplemented TSB; assay type: cell-based; set-up: key: Colonies too numerous to count (TNTC); conditions: 48 hrs
Description: (§1) Compounds or formulated products having antimicrobial activity may be evaluated with the United States Pharmacopeia (USP) Antimicrobial Effectiveness Test (AET). The AET involves the addition of specified microorganisms (Candida albicans, Aspergillus niger, Escherichia coli, Pseudomonas aeruginosa and Staphylococcus aureus) directly to a test product at relatively high concentrations to simulate contamination. The product is held for one month, with weekly analysis of microorganism levels. […] For yeast and mold, no increase from the initial inoculums level is permitted. […] Inoculations were made using Candida albicans, Aspergillus niger, Escherichia coli, Pseudomonas aeruginosa and Staphylococcus aureus. Tryptic soy broth (TSB) was used as the culturing media. […] The inoculated media was held for one month, during which time the added microorganisms were enumerated weekly to determine if they were growing, dying off, or remaining near the initial inoculation level. […] The acceptance criteria for antimicrobial effectiveness are described in detail in the USP, herein incorporated by reference.

[2] = tested on: Escherichia coli; assay: as above; assay type: cell-based; set-up: key: Colonies too numerous to count (TNTC); conditions: 48 hrs
Description: as §1

[3] = tested on: Lactobacillus acidophilus; assay: Growth of Lactobacillus acidophilus in Acidophilus milk fortified with MSM; assay type: cell-based
Description: (§2) 31, 2013. […] The Acidophilus milk was low fat (Darigold).

[4] = tested on: Acidophilus plus Bifidus milk microorganisms; assay: Growth in Acidophilus plus Bifidus milk fortified with MSM; assay type: cell-based; conditions: A/B milk
Description: as §2

[5] = tested on: Candida albicans; assay: USP <51> AET in cosmetic cream / cosmetic compositions, 28 days; assay type: cell-based; conditions: for Microbial growth (count): 48 hrs-28 days; for Log Reduction from Initial Microorganism Inoculum: 14 Days, 28 Days
Description: (§3) The cosmetic cream matrix into which the MSM was incorporated was preservative free. An additional cream, with a preservative, was also spiked with E. coli and evaluated.

[6] = tested on: Pseudomonas aeruginosa; assay: as above; assay type: cell-based; conditions: for Microbial growth (count): 48 hrs-28 days; for Log Reduction from Initial Microorganism Inoculum: 14 Days, 28 Days
Description: as §3

[7] = tested on: Escherichia coli; assay: as above; assay type: cell-based; conditions: for Microbial growth (count): 48 hrs-28 days; for Log Reduction from Initial Microorganism Inoculum: 14 Days, 28 Days
Description: as §3

[8] = tested on: Aspergillus niger; assay: as above; assay type: cell-based; conditions: 10% MSM in cosmetic cream without preservative, 48 hrs-28 days
Description: as §3

[9] = tested on: Staphylococcus aureus; assay: as above; assay type: cell-based; conditions: for Log Reduction from Initial Microorganism Inoculum: 14 Days, 28 Days
Description: as §3

[10] = tested on: Vero cells (ATCC#CCL-81)
[11] = 10% MSM in cosmetic cream without preservative
[12] = 10% MSM in preservative-free jojoba cosmetic cream
[13] = 10% MSM, Preservative Free Cosmetic Composition #1
[14] = 10% MSM, Preservative Free Cosmetic Composition #2
[15] = 10% MSM in Preservative Free Cosmetic Composition #1, 48 hours after inoculation
[16] = 10% MSM in Preservative Free Cosmetic Composition #1, 7 days after inoculation

In the case of CS(C)(=O)=O [MSM, Methylsulfonylmethane], the “AET test results (microorganism count)” value ([1]; 1:100 dilution of MSM in TSB) is reported as “TNTC”, the “AET test results (microorganism count)” value ([1]; 1:1000 dilution of MSM in TSB) is reported as “TNTC” and the “AET test results (microorganism count)” value ([2]; 1:100 dilution of MSM in TSB) is reported as “TNTC”. For the same molecule, the “AET test results (microorganism count)” value ([2]; 1:1000 dilution of MSM in TSB) was “TNTC”, the peak growth ([3]; 0.5% MSM) was 10.72 logs and the “log growth lower than control” value ([3]; 0.5% MSM, listed as order: Day 14, Day 28) was 0.74 logs and 1.00 logs. The peak growth ([3]; 5.0% MSM) was 10.89 log, the “log increase in growth within the first 8 hours (duplicates)” value ([3]; […] MSM) was 2.27 logs and the peak growth ([3]; […] MSM) was 10.59 logs. The “log growth lower than control” value ([3]; […] MSM, Day 28) was 0.68 logs, the “Growth of Lactobacillus acidophilus in Milk fortified with MSM average” value (“Growth … with MSM average” below) ([3]; 0.50% MSM, Day 7) was 10.68 log and the “Growth … with MSM average” value ([3]; 0.50% MSM, Day 14) was 6.22 log. The “Log Growth of Lactobacillus acidophilus in Milk fortified with MSM” value (“Log Growth of Lactobacillus acidophilus” for short) ([3]; 0.50% MSM, Day 21) was 5.37 log, the “Growth … with MSM average” value ([3]; 0.50% MSM, Day 21) was 5.37 log and the “Growth … with MSM average” value ([3]; 0.50% MSM, Day 28) was 3.00 log. For the same molecule, the “Growth … with MSM average” value ([3]; 0.50% MSM, hour 0) was 6.98 log, the “Log Growth of Lactobacillus acidophilus” value ([3]; 0.50% MSM, hour 8) was 9.06 log and 9.00 log and the “Growth … with MSM average” value ([3]; 0.50% MSM, hour 8) was 9.03 log. For the same molecule, the “Growth … with MSM average” value ([3]; 0.50% MSM, hour 24) was 9.38 log, the “Log Growth of Lactobacillus acidophilus” value ([3]; 0.50% MSM, hour 32) was 9.12 log and the “Growth … with MSM average” value ([3]; 0.50% MSM, hour 32) was 9.16 log. The “Log Growth of Lactobacillus acidophilus” value ([3]; 0.50% MSM, hour 48) was 8.55 log and 8.69 log, the “Growth … with MSM average” value ([3]; 0.50% MSM, hour 48) was 8.62 log and the “Log Growth of Lactobacillus acidophilus” value ([3]; 0.50% MSM, hour 56) was 8.77 log and 8.69 log. The “Growth … with MSM average” value ([3]; 0.50% MSM, hour 56) was 8.73 log, the “Log Growth of Lactobacillus acidophilus” value ([3]; 0.50% MSM, hour 72) was 8.56 log and 8.67 log and the “Growth … with MSM average” value ([3]; 0.50% MSM, hour 72) was 8.62 log. The “Growth … with MSM average” value ([3]; 0.50% MSM, hour 80) was 9.72 log, the “Growth … with MSM average” value ([3]; 0.50% MSM, hour 96) was 10.09 log and the “Growth … with MSM average” value ([3]; 0.50% MSM, hour 104) was 9.50 log. The “Growth … with MSM average” value ([3]; 5.00% MSM, Day 7) was 10.71 log, the “Growth … with MSM average” value ([3]; 5.00% MSM, Day 14) was 8.04 log and the “Log Growth of Lactobacillus acidophilus” value ([3]; 5% MSM, Day 21) was 5.64 log and 5.48 log. For the same molecule, the “Growth … with MSM average” value ([3]; 5.00% MSM, Day 21) was 5.56 log, the “Log Growth of Lactobacillus acidophilus” value ([3]; 5% MSM, Day 28) was 2.52 log and the “Growth … with MSM average” value ([3]; 5.00% MSM, Day 28) was 2.52 log. For the same molecule, the “Log Growth of Lactobacillus acidophilus” value ([3]; 5% MSM, hour 0) was 6.56 log and 6.47 log, the “Growth … with MSM average” value ([3]; 5.00% MSM, hour 0) was 6.52 log and the “Growth … with MSM average” value ([3]; 5.00% MSM, hour 8) was 8.91 log. For the same molecule, the “Growth … with MSM average” value ([3]; 5.00% MSM, hour 24) was 9.29 log, the “Growth … with MSM average” value ([3]; 5.00% MSM, hour 32) was 9.26 log and the “Log Growth of Lactobacillus acidophilus” value ([3]; 5% MSM, hour 48) was 8.78 log and 8.72 log. The “Growth … with MSM average” value ([3]; 5.00% MSM, hour 48) was 8.75 log, the “Log Growth of Lactobacillus acidophilus” value ([3]; 5% MSM, hour 56) was 8.88 log and 8.7 log and the “Growth … with MSM average” value ([3]; 5.00% MSM, hour 56) was 8.79 log. For the same molecule, the “Log Growth of Lactobacillus acidophilus” value ([3]; 5% MSM, hour 72) was 8.75 log and 8.63 log, the “Growth … with MSM average” value ([3]; 5.00% MSM, hour 72) was 8.69 log and the “Growth … with MSM average” value ([3]; 5.00% MSM, hour 80) was 9.79 log. The “Growth … with MSM average” value ([3]; 5.00% MSM, hour 96) was 10.20 log, the “Growth … with MSM average” value ([3]; 5.00% MSM, hour 104) was 9.56 log and the “Growth … with MSM average” value ([3]; […] MSM, Day 7) was 10.50 log. For the same molecule, the “Growth … with MSM average” value ([3]; […] MSM, Day 14) was 7.33 log, the “Growth … with MSM average” value ([3]; […] MSM, Day 21) was 5.465 log and the “Growth … with MSM average” value ([3]; […] MSM, Day 28) was 3.325 log. The “Growth … with MSM average” value ([3]; […] MSM, hour 0) was 6.69 log, the “Growth … with MSM average” value ([3]; […] MSM, hour 8) was 9.02 log and the “Log Growth of Lactobacillus acidophilus” value ([3]; […] MSM, hour 24) was 9.01 log. For the same molecule, the “Growth … with MSM average” value ([3]; […] MSM, hour 24) was 9.13 log, the “Growth … with MSM average” value ([3]; […] MSM, hour 32) was 9.09 log and the “Growth … with MSM average” value ([3]; […] MSM, hour 48) was 8.85 log. The “Growth … with MSM average” value ([3]; […] MSM, hour 56) was 8.76 log, the “Growth … with MSM average” value ([3]; […] MSM, hour 72) was 8.66 log and the “Growth … with MSM average” value ([3]; […] MSM, hour 80) was 9.74 log. The “Growth … with MSM average” value ([3]; […] MSM, hour 96) was 10.25 log, the “Growth … with MSM average” value ([3]; […] MSM, hour 104) was 9.63 log and the “log increase in growth, hour 0 to hour 8” value ([3]; milk fortified with MSM (all concentrations), minimum) was ≥ 1.73 log. For the same molecule, the “increase over Acidophilus milk growth at Day 14” value ([3]; milk fortified with MSM (concentrations not given)) was 0.86 logs and 1.3 logs, the “Log Growth of Lactobacillus acidophilus” value ([4]; Day 7) was 10.42 log and the “Log Growth of Lactobacillus acidophilus” value ([4]; Day 21) was 5.37 log. For the same molecule, the “Log Growth of Lactobacillus acidophilus” value ([4]; Day 28) was 3.94 log, the “Log Growth of Lactobacillus acidophilus” value ([4]; hour 32) was 8.87 log and the “Log Growth of Lactobacillus acidophilus” value ([4]; hour 48) was 8.3 log. For the same molecule, the “Log Growth of Lactobacillus acidophilus” value ([4]; hour 72) was 8.45 log, the “Log Growth of Lactobacillus acidophilus” value ([4]; hour 80) was 9.82 log and the “Microbial growth (count)” value ([5]; 10% MSM in Preservative Free Cosmetic Composition #2, after 48 hours incubation) was 9.0 × 10^2. For the same molecule, the “Microbial growth (count)” value ([5]; 10% MSM in Preservative Free Cosmetic Composition #2, after 7 days incubation) was <10, the “Microbial growth (count)” value [5, 11] was <10 and the “Log Reduction from Initial Microorganism Inoculum” value (from here on “Log Reduction”) [5, 12] was 4.3 log. The “Log Reduction” value [5, 13] was 5.3 log, the “Log Reduction” value [5, 14] was 5.3 log and the “Microbial growth (count)” value [6, 15] was 7.3 × 10^3. For the same molecule, the “Microbial growth (count)” value [6, 16] was <10, the “Microbial growth (count)” value [6, 11] was <10 and the “Log Reduction” value [6, 12] was 5.3 log. For the same molecule, the “Log Reduction” value [6, 13] was 5.8 log, the “Log Reduction” value [6, 14] was 5.8 log and the “Microbial growth (count)” value [7, 15] was 5.4 × 10^4. For the same molecule, the “Microbial growth (count)” value [7, 16] was <10, the “Microbial growth (count)” value [7, 11] was <10 and the “Log Reduction” value [7, 12] was 5.7 log. For the same molecule, the “Log Reduction” value [7, 13] was 5.8 log, the “Log Reduction” value [7, 14] was 5.8 log and the “Microbial growth (count)” value ([8]; 48 hours after inoculation) was 8 × 10^3. For the same molecule, the “Microbial growth (count)” value ([8]; 14 days after inoculation) was 6 × 10^3, the “Microbial growth (count)” value ([8]; 28 days after inoculation) was 5 × 10^2 and the “Microbial growth (count)” value ([9]; 10% MSM in cosmetic cream without preservative, 48 hrs-28 days) was <10. For the same molecule, the “Log Reduction” value [9, 12] was 5.6 log, the “Log Reduction” value [9, 13] was 5.7 log and the “Log Reduction” value [9, 14] was 5.7 log. The “Test Product Cytotoxicity” value [10] was 00.
